Reference: patent US12552792B2, “Solid forms of an FGFR inhibitor and processes for preparing the same” (Incyte Corporation, priority 2018, dated 2026)
Several values for one entry are separate records, joined by “and”; a condition that tells them apart may be missing. Equal entries are not always repeated.

Legend:
[1] = test system: patients with myeloid/lymphoid neoplasms with FGFR1 rearrangement; experiment: Phase 2 clinical study in myeloid/lymphoid neoplasms with FGFR1 rearrangement; assay type: in vivo, human; details: for evaluable patients who achieved clinical response: preliminary
Description: All potential subjects must have documentation of an 8p11 translocation known to activate FGFR1 through the site's own cytogenetics laboratory. Once documentation has been provided, the subject undergoes screening to meet the rest of the inclusion/exclusion criteria.
One cycle is defined as 21 days of treatment.
The study population is subjects with myeloid/lymphoid neoplasms with FGFR1 rearrangement. […] In addition, only subjects who are not candidates for stem cell transplantation, or have relapsed after stem cell transplantation and […] lymphocyte infusion and who have progressed and are not candidates for other disease-modifying therapies are eligible for the study.
Additional key exclusion criteria include current evidence of clinically significant corneal disorder/keratopathy (including but not limited to bullous/band keratopathy, corneal abrasion, inflammation/ulceration, and keratoconjunctivitis, etc) or retinal disorder (including but not limited to macular/retinal degeneration, diabetic retinopathy, retinal detachment, etc) as confirmed by ophthalmologic examination.
Study visits may include sample collection for chemistry, hematology, coagulation, lipid panel, endocrine monitoring, and urinalysis testing. […] A sample of bone marrow aspirate or peripheral blood is sent to the central laboratory for confirmation of FGFR1 rearrangement as well as a central pathology laboratory for analysis. In addition, sites provide slides and/or digitized images of bone marrow aspirate at baseline and at the time of achieving response and send them to a central pathology group for review.
Once the subject's eligibility is confirmed through the site's laboratory, screening may begin. […] Safety follow-up is 30 days (+5 days) after the last dose of the study drug. In addition, subjects are followed for overall survival after stopping treatment with study drug. Study participation is expected to average approximately 6 months per individual subject.

[2] = test system: patients with advanced/metastatic or surgically unresectable cholangiocarcinoma; experiment: Phase 2 clinical study in advanced/metastatic or surgically unresectable cholangiocarcinoma; details: for median PFS; Median time to events (95% Cl), months: Kaplan-Meier
Description: The study also considers exposure-response analyses for key efficacy and safety parameters.
The study enrolls approximately 100 subjects into Cohort A (FGFR2 translocations), 20 subjects into Cohort B (other FGF/FGFR alterations), and 20 subjects into Cohort C (US only, negative for FGF/FGFR alterations). […] Treatment will start on Day 1. Subjects undergo regular safety assessments during treatment as well as regular efficacy assessments. Subjects are allowed to continue administration in 21-day cycles until documented disease progression or unacceptable toxicity is reported.
One cycle is defined as 21 days.
The study subjects are those with advanced/metastatic or surgically unresectable cholangiocarcinoma with FGFR2 translocations, with other FGF/FGFR alterations, or who are negative for any FGF/FGFR alterations, who failed at least 1 previous treatment.
The key inclusion criteria include men and women, aged 18 or older. The subjects have histologically or cytologically confirmed advanced/metastatic or surgically unresectable cholangiocarcinoma. Subjects in Cohort A have FGFR2 translocations with a documented fusion partner in central laboratory report. Subjects in Cohort B have other FGF/FGFR alterations. Subjects in Cohort C (US only) are negative for FGF/FGFR alterations. Additional key inclusion criteria include radiographically measureable disease per RECIST v. 1.1; documentation of FGF/FGFR gene alteration status; documented disease progression after at least 1 line of prior systemic therapy; ECOG performance status of 0 to 2; a life expectancy greater than or equal to 12 weeks; adequate hepatic function; adequate renal function; serum phosphate≤institutional ULN; and serum calcium within institutional normal range.
The study schedule and procedures include regularly scheduled study visits at the clinical site as part of a 21-day cycle. Study visits begin with a prescreening to obtain FGF/FGFR status if unknown (results within approximately 2 years of screening are valid). Screening takes place on day −28 through day −1. Cycle 1 occurs on days 1, 8, and 15. Cycles 2+ begin on day 1. A safety follow up occurs 30 days (+5 days) from date of last dose. Disease status follow-up occurs every 9 weeks for subjects who discontinue for reasons other than disease progression. There is a survival follow-up every 12 weeks after discontinuation. […] Study visits include sample collection for hematology, chemistry, coagulation, endocrine monitoring, lipids, and urinalysis testing. Additionally, HIV screening (required for subjects outside the US) and hepatitis screening (serology) is done at screening. Pregnancy testing is also be done at screening, Day 1 of every cycle before dose administration, and at end-of-treatment. FGF/FGFR status may be determined locally.
Tumor tissue is evaluated through the central laboratory for confirmation of FGF/FGFR alteration status. Blood samples for population pharmacokinetic analysis and whole blood pharmacodynamics and correlative studies are collected at various time points throughout the study and analyzed at the central laboratory or designee.
Adverse event assessments, vital signs, electrocardiograms, physical examination, ECOG performance status comprehensive eye examination, and tumor and disease response assessments are performed by the investigative site. An objective assessment of disease status is performed at screening. Subsequently, disease status including RECIST radiological response assessment is assessed every 2 cycles for the first 4 cycles and every 3 cycles thereafter. A central radiology group provides centralized reading on all assessments.
The primary endpoint of the study is to determine the objective response rate (ORR) in subjects with FGFR2 translocations based on the central genomics laboratory results.

[3] = Cohort A (FGFR2 translocations), preliminary
[4] = Cohort A (n = 47), independent reviewer
[5] = Cohort B (n = 22), independent reviewer
[6] = Cohort C (n = 18), independent reviewer
[7] = all patients, 13.5 mg QD 2-weeks-on/1-week-off

CCN1C(=O)N(c2c(F)c(OC)cc(OC)c2F)Cc2cnc3[nH]c(CN4CCOCC4)cc3c21 [Compound 1, 3-(2,6-difluoro-3,5-dimethoxyphenyl)-1-ethyl-8-(morpholin-4-ylmethyl)-1,3,4,7-tetrahydro-2H-pyrrolo[3′,2′:5,6]pyrido[4,3-d]pyrimidin-2-one]
evaluable patients who achieved clinical response ([1]; 13 evaluable patients, 13.5 mg QD): 85%
Treatment discontinued, reason: Adverse Event, number of patients ([1]; 14 patients treated): 2
TRAE alopecia, % ([1]; 14 patients, 13.5 mg QD): 29%
TRAE diarrhea, % ([1]; 14 patients, 13.5 mg QD): 36%
TRAE dyspepsia, % ([1]; 14 patients, 13.5 mg QD): 14%
TRAE fatigue, % ([1]; 14 patients, 13.5 mg QD): 14%
TRAE hyperphosphatemia, % ([1]; 14 patients, 13.5 mg QD): 64%
TRAE increased blood alkaline phosphatase, % ([1]; 14 patients, 13.5 mg QD): 21%
TRAE stomatitis, % ([1]; 14 patients, 13.5 mg QD): 14%
patients with grade 3 TRAEs ([1]; 14 patients, 13.5 mg QD): Three
tolerability (in words) ([1]; 14 patients, 13.5 mg QD): generally well tolerated
patients with fatal TEAEs ([1]; 14 patients, unrelated to treatment): Two
evaluable patients who achieved clinical response ([1]; of 13 evaluable patients, 13.5 mg QD): 11 patients
response of single patient (PET scan, cytogenetics) ([1]; person, myeloproliferation and TLL, ZMYM2-FGFR1 fusion, 13.5 mg daily 2 weeks on, 1 week off, at 4 months (beginning of cycle 6)): complete cytogenetic remission and complete lymph node remission
Alopecia, TEAEs, All Grades, % of patients ([2]; All Cohorts (N = 89)): 41.6%
Alopecia, TEAEs, Grade 3/4, % of patients ([2]; All Cohorts (N = 89)): 0.0%
Alopecia, TRAEs, All Grades, % of patients ([2]; All Cohorts (N = 89)): 37.1%
Alopecia, TRAEs, Grade 3/4, % of patients ([2]; All Cohorts (N = 89)): 0.0%
Arthralgia, TEAEs, All Grades, % of patients ([2]; All Cohorts (N = 89)): 23.6%
Arthralgia, TEAEs, Grade 3/4, % of patients ([2]; All Cohorts (N = 89)): 6.7%
Arthralgia, TRAEs, All Grades, % of patients ([2]; All Cohorts (N = 89)): 11.2%
Arthralgia, TRAEs, Grade 3/4, % of patients ([2]; All Cohorts (N = 89)): 4.5%
Constipation, TEAEs, All Grades, % of patients ([2]; All Cohorts (N = 89)): 30.3%
Constipation, TEAEs, Grade 3/4, % of patients ([2]; All Cohorts (N = 89)): 0.0%
Constipation, TRAEs, All Grades, % of patients ([2]; All Cohorts (N = 89)): 11.2%
Constipation, TRAEs, Grade 3/4, % of patients ([2]; All Cohorts (N = 89)): 0.0%
Decreased appetite, TEAEs, All Grades, % of patients ([2]; All Cohorts (N = 89)): 37.1%
Decreased appetite, TEAEs, Grade 3/4, % of patients ([2]; All Cohorts (N = 89)): 2.2%
Decreased appetite, TRAEs, All Grades, % of patients ([2]; All Cohorts (N = 89)): 24.7%
Decreased appetite, TRAEs, Grade 3/4, % of patients ([2]; All Cohorts (N = 89)): 1.1%
Diarrhea, TEAEs, All Grades, % of patients ([2]; All Cohorts (N = 89)): 39.3%
Diarrhea, TEAEs, Grade 3/4, % of patients ([2]; All Cohorts (N = 89)): 2.2%
Diarrhea, TRAEs, All Grades, % of patients ([2]; All Cohorts (N = 89)): 29.2%
Diarrhea, TRAEs, Grade 3/4, % of patients ([2]; All Cohorts (N = 89)): 2.2%
Dry eye, TEAEs, All Grades, % of patients ([2]; All Cohorts (N = 89)): 20.2%
Dry eye, TEAEs, Grade 3/4, % of patients ([2]; All Cohorts (N = 89)): 1.1%
Dry eye, TRAEs, All Grades, % of patients ([2]; All Cohorts (N = 89)): 13.5%
Dry eye, TRAEs, Grade 3/4, % of patients ([2]; All Cohorts (N = 89)): 1.1%
Dry mouth, TEAEs, All Grades, % of patients ([2]; All Cohorts (N = 89)): 29.2%
Dry mouth, TEAEs, Grade 3/4, % of patients ([2]; All Cohorts (N = 89)): 0.0%
Dry mouth, TRAEs, All Grades, % of patients ([2]; All Cohorts (N = 89)): 23.6%
Dry mouth, TRAEs, Grade 3/4, % of patients ([2]; All Cohorts (N = 89)): 0.0%
Dysgeusia, TEAEs, All Grades, % of patients ([2]; All Cohorts (N = 89)): 36.0%
Dysgeusia, TEAEs, Grade 3/4, % of patients ([2]; All Cohorts (N = 89)): 0.0%
Dysgeusia, TRAEs, All Grades, % of patients ([2]; All Cohorts (N = 89)): 34.8%
Dysgeusia, TRAEs, Grade 3/4, % of patients ([2]; All Cohorts (N = 89)): 0.0%
Edema peripheral, TEAEs, All Grades, % of patients ([2]; All Cohorts (N = 89)): 22.5%
Edema peripheral, TEAEs, Grade 3/4, % of patients ([2]; All Cohorts (N = 89)): 1.1%
Edema peripheral, TRAEs, All Grades, % of patients ([2]; All Cohorts (N = 89)): 3.4%
Edema peripheral, TRAEs, Grade 3/4, % of patients ([2]; All Cohorts (N = 89)): 0.0%
Fatigue, TEAEs, All Grades, % of patients ([2]; All Cohorts (N = 89)): 36.0%
Fatigue, TEAEs, Grade 3/4, % of patients ([2]; All Cohorts (N = 89)): 4.5%
Fatigue, TRAEs, All Grades, % of patients ([2]; All Cohorts (N = 89)): 23.6%
Fatigue, TRAEs, Grade 3/4, % of patients ([2]; All Cohorts (N = 89)): 1.1%
Hyperphosphatemia, TEAEs, All Grades, % of patients ([2]; All Cohorts (N = 89)): 60.7%
Hyperphosphatemia, TEAEs, Grade 3/4, % of patients ([2]; All Cohorts (N = 89)): 0.0%
Hyperphosphatemia, TRAEs, All Grades, % of patients ([2]; All Cohorts (N = 89)): 55.1%
Hyperphosphatemia, TRAEs, Grade 3/4, % of patients ([2]; All Cohorts (N = 89)): 0.0%
Hypophosphatemia, TEAEs, All Grades, % of patients ([2]; All Cohorts (N = 89)): 25.8%
Hypophosphatemia, TEAEs, Grade 3/4, % of patients ([2]; All Cohorts (N = 89)): 13.5%
Hypophosphatemia, TRAEs, All Grades, % of patients ([2]; All Cohorts (N = 89)): 10.1%
Hypophosphatemia, TRAEs, Grade 3/4, % of patients ([2]; All Cohorts (N = 89)): 5.6%
Nausea, TEAEs, All Grades, % of patients ([2]; All Cohorts (N = 89)): 29.2%
Nausea, TEAEs, Grade 3/4, % of patients ([2]; All Cohorts (N = 89)): 0.0%
Nausea, TRAEs, All Grades, % of patients ([2]; All Cohorts (N = 89)): 15.7%
Nausea, TRAEs, Grade 3/4, % of patients ([2]; All Cohorts (N = 89)): 0.0%
Stomatitis, TEAEs, All Grades, % of patients ([2]; All Cohorts (N = 89)): 30.3%
Stomatitis, TEAEs, Grade 3/4, % of patients ([2]; All Cohorts (N = 89)): 3.4%
Stomatitis, TRAEs, All Grades, % of patients ([2]; All Cohorts (N = 89)): 27.0%
Stomatitis, TRAEs, Grade 3/4, % of patients ([2]; All Cohorts (N = 89)): 3.4%
Median OS ([2]; Cohort A (FGFR2 translocations)): 15.8 months
median PFS; Median time to events (95% Cl), months ([2]; Cohort A (FGFR2 translocations), 47 evaluable patients, independent reviewer): 9.2 months and 9.20 (6.44-NE) months
objective response rate (ORR) ([2]; Cohort A (FGFR2 translocations), 47 patients followed >=8 months, 13.5 mg QD 2-weeks-on/1-week-off, independent reviewer, preliminary): 40.4%
Disease control rate (DCR) [2, 3]: 85.1%
median duration of response (DOR) [2, 3]: has not been reached
probability of maintaining response for greater than or equal to six months [2, 3]: 86.2%
Best OR: CR, % of patients [2, 4]: (0.0) %
Best OR: NE, % of patients [2, 4]: (4.3) %
Best OR: PD, % of patients [2, 4]: (10.6) %
Best OR: PR, % of patients [2, 4]: (40.4) %
Best OR: SD, % of patients [2, 4]: (44.7) %
DCR [2, 4]: 85.1%
ORR [2, 4]: 40.4%
PFS Events, % ([2]; Cohort A, 47 evaluable patients): 46.8%
Best OR: CR, % of patients [2, 5]: (0.0) %
Best OR: NE, % of patients [2, 5]: (22.7) %
Best OR: PD, % of patients [2, 5]: (31.8) %
Best OR: PR, % of patients [2, 5]: (0.0) %
Best OR: SD, % of patients [2, 5]: (45.5) %
DCR [2, 5]: 45.5%
ORR [2, 5]: 0%
Median OS ([2]; Cohort B (other FGF/FGFR alterations)): 6.8 months
median PFS; Median time to events (95% Cl), months ([2]; Cohort B (other FGF/FGFR alterations), 22 evaluable patients, independent reviewer): 2.1 months and 2.10 (1.18-6.80) months
Disease control rate (DCR) ([2]; Cohort B (other FGF/FGFR alterations), preliminary): 45.5%
PFS Events, % ([2]; Cohort B, 22 evaluable patients): 77.3%
Best OR: CR, % of patients [2, 6]: (0.0) %
Best OR: NE, % of patients [2, 6]: (22.2) %
Best OR: PD, % of patients [2, 6]: (55.6) %
Best OR: PR, % of patients [2, 6]: (0.0) %
Best OR: SD, % of patients [2, 6]: (22.2) %
DCR [2, 6]: 22.2%
ORR [2, 6]: 0%
Median OS ([2]; Cohort C (negative for FGF/FGFR alterations)): 4.0 months
median PFS; Median time to events (95% Cl), months ([2]; Cohort C (negative for FGF/FGFR alterations), 18 evaluable patients, independent reviewer): 1.7 months and 1.68 (1.38-1.84) months
Disease control rate (DCR) ([2]; Cohort C (negative for FGF/FGFR alterations), preliminary): 22.2%
PFS Events, % ([2]; Cohort C, 18 evaluable patients): 88.9%
patients with TEAEs with a fatal outcome ([2]; all cohorts, none related to study treatment): Five
Grade 3 or greater TEAE abdominal pain [2, 7]: 6.7%
Grade 3 or greater TEAE arthralgia [2, 7]: 6.7%
Grade 3 or greater TEAE hyponatremia [2, 7]: 7.9%
Grade 3 or greater TEAE hypophosphatemia [2, 7]: 13.5%
TEAE alopecia [2, 7]: 41.6%
TEAE decreased appetite [2, 7]: 37.1%
TEAE diarrhea [2, 7]: 39.3%
TEAE dysgeusia [2, 7]: 36.0%
TEAE fatigue [2, 7]: 36.0%
TEAE hyperphosphatemia [2, 7]: 60.7%
tolerability (in words) ([2]; interim analysis, patients with at least 8 months follow up): generally well tolerated
